Read-outs that look alike come from different tables or passages of the source.
What was measured:
[1] = system: EAEC strain O42 adherence to HEp-2 cells; experiment: HEp-2 cell attachment assay (microscopy after Wright-Giemsa staining); assay type: cell-based, human; conditions: HEp-2 cells incubated 24 h with antibiotic, washed, then EAEC 3 h
[2] = system: EAEC strain O42 adherence to HeLa cells; assay type: cell-based, human; conditions: 24 h pretreatment with 64 mg (FIG. 2: 64 μg/ml), EAEC 3 h
[3] = system: EAEC strain O42 adherence to A549 cells; assay type: cell-based, human; conditions: 24 h pretreatment with 64 mg (FIG. 2: 64 μg/ml), EAEC 3 h
[4] = system: EAEC strain O42 adherence to HCT-8 cells; assay type: cell-based, human; conditions: 24 h pretreatment with 64 mg (FIG. 2: 64 μg/ml), EAEC 3 h
[5] = system: B. anthracis Sterne strain 7702 spores on A549 cells; assay type: cell-based, human; conditions: A549 cells pretreated 24 h, spores 1 h
S sonnei isolate = experiment: Isolate viability after rifaximin exposure, S sonnei; assay type: cell-based, Shigella sonnei
[6] = system: ETEC isolates (ST, LT, CS2/CS3, CS6); assay type: cell-based, Escherichia coli; for Expression of virulence factor CS2/CS3 in ETEC isolates: key: + = present; − = not present; NV, not viable; for Expression of virulence factor CS6 in ETEC isolates: key: + = present; − = not present; NV, not viable; for Expression of virulence factor LT in ETEC isolates: key: + = present; − = not present; NV, not viable; for Expression of virulence factor ST in ETEC isolates: key: + = present; − = not present; NV, not viable
MMP-9 in EAEC isolates = experiment: Matrix metalloproteinase-9 detection by gelatin zymography, EAEC; assay type: cell-based, Escherichia coli
Protocol: Matrix Metalloproteinase-9 Detection Expression of matrix metalloproteinase-9 (MMP-9) was analyzed using gelatin zymography in all viable EAEC and S. sonnei isolates growing on MacConkey agar. Isolates were suspended in 1 mL of 0.1 M phosphate buffered saline (pH 7.2) and centrifuged at 1000 g for 10 minutes at 4° C. The supernatant was subjected to gelatin zymography to detect MMP-9 activity using a modified Heussen and Dowdle protocol (9). In summary, the supernatant was diluted 1:2 in a sample buffer (125 mM Tris-HCl, pH 6.8, 20% glycerol, 4% sodium dodecyl sulfate, 0.02% bromphenol blue), and 20 μL was loaded on to a 10% SDS-PAGE gel containing 1 mg/mL gelatin. Prestained standard proteins were used as molecular weight markers. After electrophoresis, gels were rinsed with incubation buffer (2.5% triton X-100, 50 mM Tris-HCl, pH 7.4, 0.02% Brij 35, 10 mM CaCl2, 2 μM ZnCl2) for 1 hour at room temperature to remove SDS. Gels were then incubated overnight at 37° C. and subsequently stained with Coomassie brilliant blue R-250 (Thermo Fisher Scientific, Inc, Rockford, Ill.). […] Matrix metalloproteinase-9 was identified among all gelatinolytic proteins by size.

ETEC strains = experiment: Isolate viability after rifaximin exposure, ETEC
EAEC isolates = experiment: Isolate viability after rifaximin exposure, EAEC
[7] = rifaximin 8 mg/L, exposure 4 hrs
[8] = rifaximin 8 mg/L, exposure 8 hrs
[9] = rifaximin 8 mg/L, exposure 18 hrs
[10] = rifaximin 8 mg/L, exposure 24 hrs
[11] = rifaximin 32 mg/L, exposure 4 hrs
[12] = rifaximin 32 mg/L, exposure 8 hrs
[13] = rifaximin 32 mg/L, exposure 18 hrs
[14] = rifaximin 64 mg/L, exposure 4 hrs
[15] = rifaximin 64 mg/L, exposure 8 hrs

## CO[C@H]1/C=C/O[C@@]2(C)Oc3c(C)c(O)c4c(O)c(c5c(nc6cc(C)ccn65)c4c3C2=O)NC(=O)/C(C)=C\C=C\[C@H](C)[C@H](O)[C@@H](C)[C@@H](O)[C@@H](C)[C@H](OC(C)=O)[C@@H]1C [Rifaximin, (2S,16Z,18E,20S,21S,22R,23R,24R,25S,26S,27S,28E)-5,6,21,23,25 Pentahydroxy-27-methoxy-2,4,11,16,20,22,24,26-octamethyl-2,7-(epoxypentadeca-(1,11,13)trienimino)benzofuro (4,5-e) pyrido(1,2,-a) benzimidazole-1,15(2H)-dione,25-acetate]
[1]
  EAEC O42 adherence to HEp-2 cells (microscopy): greatly reduced
[2]
  EAEC adherence to HeLa cells: significantly reduced
[3]
  EAEC adherence to A549 cells: significantly reduced
[4]
  EAEC adherence to HCT-8 cells: Slightly fewer bacteria adhered to rifaximin-pretreated HCT-8 cells, but this difference was not significant
[5]
  adherence of B. anthracis: significant reductions
[5]; then gentamicin 100 μg/ml 1 h
  internalization of B. anthracis: significant reductions
S sonnei isolate; rifaximin 8 mg/L for 4, 8, 18, and 24 hours
  S sonnei viability after exposure: viable
S sonnei isolate; rifaximin 32 or 64 mg/L at any time point
  S sonnei viability after exposure: not viable
[6]; 4- and 8-hour exposure to rifaximin 8, 32, and 64 mg/L
  Expression of all examined virulence factors (ST, LT, CS2/CS3, CS6) by viable ETEC isolates: expressed all examined virulence factors
[6]; 18-hour time point, rifaximin 8 mg/L
  Expression of all examined virulence factors (ST, LT, CS2/CS3, CS6) by viable ETEC isolates: all virulence factors were expressed
[6]; 18-hour time point, rifaximin 32 mg/L
  Expression of all examined virulence factors (ST, LT, CS2/CS3, CS6) by viable ETEC isolates: no factors were seen
[6]; 24-hour exposure to rifaximin 8 mg/L
  Expression of all examined virulence factors (ST, LT, CS2/CS3, CS6) by viable ETEC isolates: did not express any virulence factors
[6]; [7]
  Expression of virulence factor CS2/CS3 in ETEC isolates: +
  Expression of virulence factor CS6 in ETEC isolates: +
  Expression of virulence factor LT in ETEC isolates: +
  Expression of virulence factor ST in ETEC isolates: +
  Expression of virulence factor ST/LT in ETEC isolates: +
[6]; [8]
  Expression of virulence factor CS2/CS3 in ETEC isolates: +
  Expression of virulence factor CS6 in ETEC isolates: +
  Expression of virulence factor LT in ETEC isolates: +
  Expression of virulence factor ST in ETEC isolates: +
  Expression of virulence factor ST/LT in ETEC isolates: +
[6]; [9]
  Expression of virulence factor CS2/CS3 in ETEC isolates: +
  Expression of virulence factor CS6 in ETEC isolates: +
  Expression of virulence factor LT in ETEC isolates: +
  Expression of virulence factor ST in ETEC isolates: +
  Expression of virulence factor ST/LT in ETEC isolates: +
[6]; [10]
  Expression of virulence factor CS2/CS3 in ETEC isolates: −
  Expression of virulence factor CS6 in ETEC isolates: −
  Expression of virulence factor LT in ETEC isolates: −
  Expression of virulence factor ST in ETEC isolates: −
  Expression of virulence factor ST/LT in ETEC isolates: −
[6]; [11]
  Expression of virulence factor CS2/CS3 in ETEC isolates: +
  Expression of virulence factor CS6 in ETEC isolates: +
  Expression of virulence factor LT in ETEC isolates: +
  Expression of virulence factor ST in ETEC isolates: +
  Expression of virulence factor ST/LT in ETEC isolates: +
[6]; [12]
  Expression of virulence factor CS2/CS3 in ETEC isolates: +
  Expression of virulence factor CS6 in ETEC isolates: +
  Expression of virulence factor LT in ETEC isolates: +
  Expression of virulence factor ST in ETEC isolates: +
  Expression of virulence factor ST/LT in ETEC isolates: +
[6]; [13]
  Expression of virulence factor CS2/CS3 in ETEC isolates: −
  Expression of virulence factor CS6 in ETEC isolates: −
  Expression of virulence factor LT in ETEC isolates: −
  Expression of virulence factor ST in ETEC isolates: −
  Expression of virulence factor ST/LT in ETEC isolates: −
[6]; [14]
  Expression of virulence factor CS2/CS3 in ETEC isolates: +
  Expression of virulence factor CS6 in ETEC isolates: +
  Expression of virulence factor LT in ETEC isolates: +
  Expression of virulence factor ST in ETEC isolates: +
  Expression of virulence factor ST/LT in ETEC isolates: +
[6]; [15]
  Expression of virulence factor CS2/CS3 in ETEC isolates: +
  Expression of virulence factor CS6 in ETEC isolates: +
  Expression of virulence factor LT in ETEC isolates: +
  Expression of virulence factor ST in ETEC isolates: +
  Expression of virulence factor ST/LT in ETEC isolates: +
MMP-9 in EAEC isolates; rifaximin 8 mg/L for 4 and 8 hours
  MMP-9 expression by EAEC isolates: expressed MMP-9
MMP-9 in EAEC isolates; rifaximin 8 mg/L for 24 hours
  MMP-9 expression by EAEC isolates: undetectable
MMP-9 in EAEC isolates; rifaximin 8 mg/L, 18-hour time point
  MMP-9 expression by EAEC isolates: one EAEC isolate produced MMP-9, but the other isolate did not
MMP-9 in EAEC isolates; rifaximin 32 or 64 mg/L for 4, 8, or 18 hours
  MMP-9 expression by EAEC isolates: undetectable
ETEC strains; rifaximin 8 mg/L, 24-hour exposure
  ETEC viability after exposure: viable
ETEC strains; rifaximin 64 mg/L for 18 hours or 32 and 64 mg/L for 24 hours
  ETEC viability after exposure: No ETEC isolates were viable
ETEC strains; rifaximin 8, 32, and 64 mg/L for 4 and 8 hours, 8 and 32 mg/L for 18 hours
  ETEC viability after exposure: viable
EAEC isolates; rifaximin 8 mg/L for 24 hours
  EAEC viability after exposure: viable
EAEC isolates; rifaximin 8, 32, and 64 mg/L at 4, 8, and 18 hours
  EAEC viability after exposure: viable
EAEC isolates; rifaximin 32 and 64 mg/L for 24 hours
  EAEC viability after exposure: no viable isolates were recovered
